Like-named read-outs stand apart in the source and are kept apart here. Where a SMILES comes first, the peptide text is derived from it.
Legend:
participants with IPF = assay type: in vivo, human
Method: This was a Phase 1b, randomized, double-blind, placebo-controlled, dose escalation study conducted at 6 sites in the United States, United Kingdom, Germany, and Australia (ClinicalTrials.gov: NCT05954988).
The full study protocol and statistical analysis plan are provided as Supplementary Notes 1 and 2, respectively. The completed CONSORT checklist for reporting of this study is provided as Supplementary Note 3.
Randomization was performed by interactive response system. Participants, study staff, and sponsor personnel were blinded to treatment assignment throughout the study.
Safety and tolerability assessments were performed through treatment and follow-up and included evaluation of TEAEs, concomitant medications, physical examinations, vital signs, 12-lead ECGs, clinical laboratory assessments, spirometry, and cough symptoms using the validated LCQ[22] and a cough VAS. Spirometry was performed according to American Thoracic Society (ATS) / European Respiratory Society (ERS) Task Force guidelines[46] at all clinic visits, with assessments conducted both pre-and post-dose on study drug dosing days. Study staff monitored participants’ self-administration of the study drug (the morning dose) during on-site visits, and symptoms were monitored for at least 1h.
The primary endpoint was the incidence of TEAEs reported from Day 1 through follow-up. TEAEs were coded using MedDRA (Version 26.1) and graded using the National Cancer Institute Common Terminology for Adverse Events (CTCAE) Version 5. Safety analyses included all participants who received the study drug. […] Placebo participants in each cohort were pooled for safety and biomarker analyses. No secondary endpoints were specified.

galectin-7 (GAL-7) = experiment: GAL7 ELISA in deep bronchial brushings (DBB); assay type: in vivo, human; conditions: for GAL7 in DBB, Δ from baseline, median (IQR): Day 14 minus screening
Text: (§1) Bronchoscopists were instructed to obtain a total of 6 brushings from 3 of the basilar bronchial segments of the right lower lobe: the anterior basilar segment, the lateral basilar segment, and the posterior basilar segment. With the bronchoscope proximal to or within the orifice of the appropriate basilar segment, the brush sheath was to be passed out 5 cm beyond the subsegment orifice, and then the brush was fully extended an additional 1 cm for a total of 6 cm beyond the orifice of the subsegmental bronchus. At the desired depth, the sheath was to be gently pulled back and forward for 15 strokes to brush the small airways. The brushing process was repeated using any combination of the 3 basilar segments described above, at the discretion of the bronchoscopist, for a total of 6 six separate brush samples.
(§2) Protein isolation and preparation of DBB samples for ELISAs were performed as previously described[47] according to manufacturer’s instructions for COL1A1 (#ab210966, abcam), CXCL7 (#LS-F4967-1, LS Bio), GAL7 (#DY1339, R&D Systems), IL-11 (#DY218, R&D Systems), and TSLP (#DY1398, R&D Systems).
(§3) Descriptive statistics are reported as medians with interquartile ranges (IQR). The Hodges-Lehmann estimator was used for the median difference between groups (treatment minus placebo), with approximate 90% confidence intervals (asymmetric, exact level varied slightly with small n). Cliff’s delta was calculated as effect size using the formula δ = (2U / (n1 × n2)) − 1, with thresholds: |δ | <0.3 small effect, 0.3–0.5 medium effect, >0.5 large effect. […] No adjustment for multiplicity was performed, as these were pre-specified, hypothesis-driven exploratory analyses. All biomarker statistical analyses were conducted using GraphPad Prism Version v10.0.

[1] = tested on: phosphorylated (p) AKT over total AKT; experiment: AKT/pAKT in PBMCs, MSD-ECL assay; assay type: in vivo, human
Method: (§4) Blood samples for biomarker assessments in PBMCs and platelet-rich plasma were collected prior to the initial dose and on day 14 following the last dose. Following optimization for detection of analytes in IPF matrices, meso-scale discovery electrochemiluminescence (MSD-ECL) assays were performed at BioAgylitix for SP-D (#K1519XR-2, MSD) in plasma and AKT/pAKT (#K15100D-1, MSD) in PBMCs according to manufacturer’s instructions.
as §3

interleukin 11 (IL-11) = experiment: IL-11 ELISA in deep bronchial brushings (DBB); assay type: in vivo, human; conditions: for IL-11 in DBB, Δ from baseline, median (IQR): Day 14 minus screening
Text: as §1, §2, §3

[2] = protocol, section 1.1.1.1; cited from earlier work
Text: […]. "Antifibrotic therapy for idiopathic pulmonary fibrosis: time to treat." Respiratory research 20.1 (2019) ...

[3] = tested on: collagen type 1 alpha chain 1 (COL1A1); experiment: COL1A1 ELISA in deep bronchial brushings (DBB); assay type: in vivo, human; conditions: for COL1A1 in DBB, Δ from baseline, median (IQR): Day 14 minus screening
Text: as §1, §2, §3

[4] = tested on: surfactant protein D (SP-D); experiment: SP-D in plasma, MSD-ECL assay; assay type: in vivo, human; conditions: for SP-D in plasma, Δ from baseline, median (IQR): Day 14 minus screening, N = 8; for SP-D in plasma, median difference vs placebo (Hodges-Lehmann): N = 8 vs pooled placebo N = 5
Method: as §4, §3

[5] = tested on: thymic stromal lymphopoietin (TSLP); experiment: TSLP ELISA in deep bronchial brushings (DBB); assay type: in vivo, human; conditions: for TSLP in DBB, Δ from baseline, median (IQR): Day 14 minus screening
Text: as §1, §2, §3

[6] = 5 mg/day (2.5 mg BID) inhaled, 14 days, IPF, N = 9
[7] = 10 mg/day (5 mg BID) inhaled, 14 days, IPF, N = 9
[8] = 5 mg/day, N = 8 vs pooled placebo N = 6, one-tailed Mann-Whitney p = 0.0709

## CC(C)[C@H](NC(=O)[C@@H](NC(=O)[C@H](Cc1ccccc1)NC(=O)[C@@H](NC(=O)[C@@H](NC(=O)[C@@H](N)Cc1ccccc1)[C@@H](C)O)[C@@H](C)O)[C@@H](C)O)C(=O)N[C@H](C(=O)O)[C@@H](C)O [LTI-03] (H-FTTFTVT-OH; N-terminus and C-terminus assumed)
Participants with IPF; [6]
  TEAE: Back pain: 1 (11.1) n (%)
  TEAE: Body temperature increased: 1 (11.1) n (%)
  TEAE: COVID-19: 1 (11.1) n (%)
  TEAE: Chest discomfort: 1 (11.1) n (%)
  TEAE: Dysgeusia: 1 (11.1) n (%)
  TEAE: Dyspnea, exertional: 1 (11.1) n (%)
  TEAE: Fatigue: 1 (11.1) n (%)
  TEAE: Hyperkaliemia: 1 (11.1) n (%)
  TEAE: Ophthalmic migraine: 1 (11.1) n (%)
  TEAE: Rhinorrhea: 1 (11.1) n (%)
Participants with IPF; 5 mg/day (2.5 mg BID) inhaled, 14 days, IPF, N = 9, CTCAE v5
  TEAEs Grade 2: 1 (11.1) n (%)
Participants with IPF; [7]
  Serious TEAEs: 1 (11.1) n (%)
  TEAE related to study drug: Dry Mouth: 1 (11.1) n (%)
  TEAE related to study drug: Hypoesthesia oral: 1 (11.1) n (%)
  TEAE related to study drug: Palpitations: 1 (11.1) n (%)
  TEAE related to study drug: Throat Irritation: 1 (11.1) n (%)
  TEAE: COVID-19: 0 n (%)
  TEAE: Cold sweat: 1 (11.1) n (%)
  TEAE: Dry mouth: 1 (11.1) n (%)
  TEAE: Hypoesthesia oral: 1 (11.1) n (%)
  TEAE: Nasopharyngitis: 1 (11.1) n (%)
  TEAE: Palpitations: 1 (11.1) n (%)
  TEAE: Productive cough: 1 (11.1) n (%)
  TEAE: Rhinorrhea: 1 (11.1) n (%)
  TEAE: Throat irritation: 1 (11.1) n (%)
  TEAE: Vertigo: 1 (11.1) n (%)
Participants with IPF; 10 mg/day (5 mg BID) inhaled, 14 days, IPF, N = 9, serious, Grade 2, unrelated
  TEAE: Post procedural fever: 1 (11.1) n (%)
Participants with IPF; in vivo
  participants with TEAE cough: 44%
Participants with IPF; pooled 5 and 10 mg/day inhaled, 14 days, IPF, N = 18
  TEAE: COVID-19: 1 (5.6) n (%)
galectin-7 (GAL-7); 5 mg/day, N = 8
  GAL7 in DBB, Δ from baseline, median (IQR): 250.8575 pg/mg protein
galectin-7 (GAL-7); [8]
  GAL7 in DBB, median difference vs placebo (Hodges-Lehmann): −4730 pg/mg protein
galectin-7 (GAL-7); 10 mg/day, N = 9
  GAL7 in DBB, Δ from baseline, median (IQR): −726.395 pg/mg protein
galectin-7 (GAL-7); 10 mg/day, N = 9 vs pooled placebo N = 6, one-tailed Mann-Whitney p = 0.0332
  GAL7 in DBB, median difference vs placebo (Hodges-Lehmann): −6048 pg/mg protein
[1]; 5 mg/day
  %p-AKT in PBMCs, Cliff's delta vs placebo: −0.33
[1]; 10 mg/day
  %p-AKT in PBMCs, Cliff's delta vs placebo: −0.13
[1]; 5 and 10 mg/day vs placebo, 14 days
  phosphorylated (p) AKT over total AKT levels in PBMCs: did not change
Interleukin 11 (IL-11); 5 mg/day, N = 8
  IL-11 in DBB, Δ from baseline, median (IQR): −11.037 pg/mg protein
Interleukin 11 (IL-11); 5 mg/day, N = 8 vs pooled placebo N = 6, one-tailed Mann-Whitney p = 0.0406
  IL-11 in DBB, median difference vs placebo (Hodges-Lehmann): −21.71 pg/mg protein
Interleukin 11 (IL-11); 10 mg/day, N = 9
  IL-11 in DBB, Δ from baseline, median (IQR): −6.528 pg/mg protein
Interleukin 11 (IL-11); 10 mg/day, N = 9 vs pooled placebo N = 6, one-tailed Mann-Whitney p = 0.044
  IL-11 in DBB, median difference vs placebo (Hodges-Lehmann): −19.15 pg/mg protein
[2]
  solubility in water: limited solubility
[3]; 5 mg/day, N = 8
  COL1A1 in DBB, Δ from baseline, median (IQR): 0.16 pg/mg protein
[3]; [8]
  COL1A1 in DBB, median difference vs placebo (Hodges-Lehmann): −3.486 pg/mg protein
[3]; 10 mg/day, N = 9
  COL1A1 in DBB, Δ from baseline, median (IQR): −11.9 pg/mg protein
[3]; 10 mg/day, N = 9 vs pooled placebo N = 6, one-tailed Mann-Whitney p = 0.0248
  COL1A1 in DBB, median difference vs placebo (Hodges-Lehmann): −20.95 pg/mg protein
[4]; 5 mg/day
  SP-D in plasma, Δ from baseline, median (IQR): 3290 pg/mL
[4]; 5 mg/day, one-tailed Mann-Whitney p = 0.3108
  SP-D in plasma, median difference vs placebo (Hodges-Lehmann): 3428 pg/mL
[4]; 10 mg/day
  SP-D in plasma, Δ from baseline, median (IQR): -3264 pg/mL
[4]; 10 mg/day, one-tailed Mann-Whitney p = 0.1111
  SP-D in plasma, median difference vs placebo (Hodges-Lehmann): -8368 pg/mL
[4]; 10 mg/day, baseline to Day 14, p = 0.1111, not statistically significant
  decrease of plasma SP-D compared to placebo: 5%
[5]; 5 mg/day, N = 7
  TSLP in DBB, Δ from baseline, median (IQR): −2.106 pg/mg protein
[5]; 5 mg/day, N = 7 vs pooled placebo N = 6, one-tailed Mann-Whitney p = 0.0256
  TSLP in DBB, median difference vs placebo (Hodges-Lehmann): −19.66 pg/mg protein
[5]; 10 mg/day, N = 9
  TSLP in DBB, Δ from baseline, median (IQR): −2.09 pg/mg protein
[5]; 10 mg/day, N = 9 vs pooled placebo N = 6, one-tailed Mann-Whitney p = 0.0128
  TSLP in DBB, median difference vs placebo (Hodges-Lehmann): −19.07 pg/mg protein

Reference: PMC13427755 (Nature Communications, 2026)
